According to US10835500B2, “Medicament for accelerated wound healing” (Symrise AG, priority 2014, dated 2020):
“Also recorded” adds a separate entry of the source. Read-outs that look alike come from different tables or passages of the source.

System: HaCaT cells
Test: Calcium imaging in HaCaT cells
Type: cell-based, human
Conditions: for calcium signals on repeated stimulation: repeated application (500 μM in FIG. 9); for EC50: calcium signal amplitude, read-out: ECR50R value
Description: In the fourth application, saturation occurred at approx. 500 μM (FIG. 9d). The ECR50R value was 430 μM of Sandalore® in the first application and 112 μM of Sandalore® in the fourth application.
The Sandalore®-induced signal cascade in HaCaT cells and primary keratinocytes was pharmacologically characterized using the calcium imaging technique and specific blockers of signal cascade proteins. An investigation was first conducted in order to determine whether the calcium signals are caused by calcium inflow from the extracellular space. For this purpose, a calcium-free extracellular solution was used with a calcium chelator (EGTA) added. […] In order to investigate the role of adenylyl cyclase, the specific blockers SQ-22536 and MDL-12330A were used. […] The efficacy of the blockers was tested in this case with histamine, which activated the PLC signalling pathway (FIG. 11c). […]
In order to characterize the antagonists, HaCaT cells were first repeatedly stimulated with Sandalore® (1 mM). On the third application, costimulation (1:1) with Sandalore® and one of the antagonists took place. […] Based on this, dose-dependent characterization of inhibition was to be carried out. For this purpose, Sandalore® and the antagonists were costimulated with different concentrations.
Effect of the OR2AT4 ligand Sandalore® on intracellular calcium concentration of cultivated keratinocytes. […] 100 μM of ATP was used at the end of each measurement as a positive control stimulus. Right: Quantitative evaluation of calcium signals in 4-time application of Sandalore® (500 μM). Shown are the mean values of the individual applications including standard error. Mann-Whitney U test. *: p<0.05. C) and D): dose-dependent activation of HaCaT cells in calcium imaging experiments. Shown are the mean amplitudes including standard error at various concentrations in the first (C) and fourth (D) Sandalore® application. Number of cells measured: 0.0125 mM (39), 0.025 mM (30), 0.1 mM (46), 0.5 mM (34), 1 mM (63), 2 mM (41), 10 mM (36).
A) Representative calcium imaging traces of HaCaT cells (left) and primary keratinocytes (right) incubated with the gap junction blocker 1-octanol (500 μM) and then repeatedly stimulated with Sandalore® (500 μM, horizontal bars) (blue trace). […] 100 μM of ATP was used at the end of each measurement as a positive control stimulus. Quantitative evaluation of HaCaT cells (B) and primary keratinocytes (C) incubated with the gap junction blockers 1-octanol (500 μM) or carbenoxolone (10 μM) and then repeatedly stimulated with Sandalore® (500 μM) or Lyral (1 mM) in calcium imaging experiments. Shown are the mean values of the individual applications including standard error relative to the control measurements (Sandalore® application without blocker). Mann-Whitney U test. Number of cells measured: Sandalore®+1-octanol (HaCaT (110), keratinocytes (26)); Sandalore®+carbenoxolone: HaCaT (74); Lyral+carbenoxolone: HaCaT (43). ***: p<0.001.
Pharmacological characterization of Sandalore®-induced signal cascade in human keratinocytes. A)-D). Shown are representative calcium imaging traces of primary keratinocytes in the presence of a blocker (blue). The horizontal bars correspond to the application times. 100 μM of ATP was used at the end of each measurement as a positive control stimulus. A) Measurement with calcium-free extracellular solution (+10 mM EGTA). B) Measurement with the adenylyl cyclase blocker SQ-22536 (100 μM). C) Use of the phospholipase-C blocker U-73122 (10 μM). 100 μM of histamine was taken as a positive control. D) Measurement with the CNG channel blocker L-cis-diltiazem (150 μM). E) Overview of pharmacological measurement of HaCaT cells and primary keratinocytes (Kera). The mean amplitudes relative to the control measurements (dashed line) are indicated. MDL-12330A (40 μM). […]

| Compound | calcium signals on repeated stimulation (HaCaT cells) | inhibitory action on Sandalore-induced calcium signals (Sandalore 500 μM + antagonist 100 μM) | amplitude heights, % of the control amplitudes (Sandalore 500 μM + antagonist 250 μM) | calcium signals, % of the control amplitude (Sandalore without antagonists) (Sandalore 500 μM + antagonist 500 μM) | blocking of Sandalore-induced calcium signals (antagonist 500 μM, Sandalore 750 μM) | inhibition of Sandalore-induced calcium signals (antagonist 500 μM, Sandalore 1 mM) | IC50 (inhibition of calcium signals induced by 500 μM Sandalore, read-out: IC50 values (mean inhibitory concentrations)) | effect on Sandalore-induced calcium signals on coapplication (third application, costimulation 1:1 with Sandalore 1 mM) | share of cells repeatedly stimulated (HaCaT cells, calcium imaging) | calcium signals on repeated stimulation (HaCaT cells, listed as Sandalore) | concentration at which dose-dependent activation begins (amplitude of the first application) | EC50 (first application) | EC50 (fourth application) | concentration from which saturation is reached (first application) | concentration at which saturation occurred (fourth application) |
| --- | --- | --- | --- | --- | --- | --- | --- | --- | --- | --- | --- | --- | --- | --- | --- |
| CC1=CCC(CCC(C)CO)C1(C)C (stereo not shown) [Brahmanol®] | significant sensitization |  |  |  |  |  |  |  |  |  |  |  |  |  |  |
| CC(=O)CCc1ccc(O)cc1 [Oxyphenylon] |  | disappeared completely | 39% | 8% | decreased | completely eliminated | 174 µM | significant reduction |  |  |  |  |  |  |  |
| CC1=CCC(CCC(C)C(C)O)C1(C)C (stereo not shown) [Sandalore®] | significant sensitization; also recorded: induced calcium signals |  |  |  |  |  |  |  | 80-90% | significant sensitization | 100 µM | 430 µM | 112 µM | approx. 2 mM | approx. 500 μM |
